For this experiment, the system named is anxiety-like behavior of naive rats. The experiment is described as follows: Defensive burying test after bilateral CRF infusion in the central nucleus of the amygdala. Type of experiment: in vivo, rat. The conditions noted are these: CRF 30 pmol total dose, bilateral intra-amygdala. The procedure: To confirm that increases of CRF in the central nucleus of the amygdala elicit anxiety-like behavior, anxiety-like behavior was measured using the defensive burying test, after bilateral infusion of CRF (30 pmol total dose) or vehicle in the central nucleus of the amygdala of naive rats one minute before beginning of the burying test. CRF administered directly into the amygdala increased the time spent burying and decreased the latency to bury during the first 5 minutes after infusion (Table 2),
Rats were anesthetized with an isoflurane-oxygen mixture, and 26-gauge stainless steel guide cannulas (Plastics One, Roanoke, Va.) aimed 2 mm above the central nucleus of the amygdala stereotaxically were implanted bilaterally: AP −2.6 mm; ML ±4.2 mm; V −5.2 mm, from dura, with flat skull (Paxinos and Watson, 1998). The guide cannulas were secured to the skull with dental cement and anchor screws, and guide cannulas were maintained with stylets. Intracerebral injections were administered with the use of injectors (33-gauge; Plastics One) that projected 2 mm past the guide cannula to the central nucleus of the amygdala. The injectors were attached to 70 cm of calibrated polyethylene-20 tubing preloaded with drug solution. This cohort of rats had been extensively handled previously in the context of a food intake study, in which they received administration of a CRF1 receptor antagonist subcutaneously and into the central nucleus of the amygdala in a Latin-square design. A washout period of 7 days was imposed before the present study with all subjects maintained on chow, during which animals were handled daily. Rats were randomly assigned to CRF vs. vehicle conditions balanced for previous diet history, which was statistically unrelated to performance in the defensive burying test. The CRF group (n=5) was infused bilaterally (30 pmol total dose) with a volume of 0.25 μL/side over 30 seconds using Hamilton microsyringes and 2 infusion pumps (Harvard Apparatus, Holliston, Mass.). The control group (n=5) received the same volume of PBS. Injectors were removed from guide cannulae 1 minute after the end of the infusions, and rats were returned to the home cage for 1 minute before being tested in the defensive burying test.

No end group written: not given here.

As to “CRF: Corticotropin-releasing factor, a 41 amino-acid residue peptide; rat/human CRF infused into the central nucleus of the amygdala (SEEPPISLDLTFHLLREVLEMARAEQLAQQAHSNRKLMEII; ends and bridges not checked; UniProt P06850 154-194, looked up)”, the Grooming amounted to 30 ± 27 s, the “Latency to bury” value is recorded as 165 ± 91 s and the Rearing is recorded as 91 ± 15 s. For the same substance, for the setting “first 5 minutes after infusion”, the Burying was determined as 7.1 ± 4.7 s.

For the origin of these results see patent US20100249138A1, “MPZP: A SMALL MOLECULE CORTICOTROPIN-RELEASING FACTOR TYPE 1 RECEPTOR (CRF1) ANTOGONIST” (priority 2007, published 2010).
